Results: patent US20230398130A1, “METHODS AND COMPOSITIONS FOR DIFFERENTIATING STEM CELLS” (Massachusetts Institute of Technology, priority 2020, published 2023)
Entries after “also recorded” stand apart in the source; their conditions may differ.

Experiments:
Type in all cases: cell-based, murine
ISC-enriched organoids = assay: Lysozyme secretion assay, 3-D organoids in ENR+CD, normalized to ATP
Protocol: Lysozyme assay (3D culture). ISC-enriched organoids cultured in 3D Matrigel with ENRCV media were passaged to 48-well plate in 3D Matrigel with ENRCV. At day zero, media were replaced to ENR or ENRCD with or without indicated compounds, and media were replaced every other day. At day six, cells were washed twice with basal media and treated with carbamylcholine chloride (Sigma, C4382) for 3 hours. Media were collected and lysozyme activity was measured by EnzChek Lysozyme Assay Kit (ThermoFisher, E22013).
(§1) Lysozyme secretion assay. ISC-enriched organoids in 3D Matrigel culture were passaged to a 48- or 96-well plate and cultured with ENR or ENR+CD media containing DMSO or each drug for 6 days. DMSO- or drug-containing media were changed every other day. On day 6, cells were washed with basal media twice and treated with basal media with or without 10 μM carbamoylcholine chloride for 3 h in a CO2 incubator at 37° C. A part of the conditioned media was collected and used for lysozyme assay (Thermo, E-22013) following the manufacturer's instruction. The fluorescence was measured using excitation/emission of 485/530 nm. CellTiter-Glo 3D Reagent (Promega, G9681) was added afterward, and the cell culture plate was incubated on an orbital shaker at RT for 30 min to induce cell lysis and to stabilize the luminescent signal. The solution was replaced to a 96-well white microplate, and luminescent signals were measured by a microplate reader (infinite M200, Tecan). The standard curve was prepared by diluting recombinant ATP (Promega, P1132). For both assays, a polynomial cubic curve was fitted to a set of standard data, and each sample value was calculated on the Microsoft Excel.
as §1, with “in 3-D” for “in 3D”, “μM carbachol” for “μM carbamoylcholine chloride”, “3 hours” for “3 h”, “C. Conditioned” for “C. A part of the conditioned”, “nm. CTG” for “nm. CellTiter-Glo”, “Reagent” for “Reagent (Promega, G9681)”

Paneth cells = assay: Immunofluorescent imaging of organoids: LYZ+ cells per organoid area
Protocol: Immunofluorescent imaging. For immunofluorescence staining of organoids, intestinal organoids in Matrigel were fixed with 4% paraformaldehyde, then transferred to centrifuge tube. After washing with PBS, the isolated organoids were permeabilized with 1% Triton X followed by incubation with blocking buffer (1% BSA+3% Donkey Serum+0.2% Triton X in PBS) at RT. The organoids were then stained with primary antibodies and fluorescent dye-labeled secondary antibodies as well as with DAPI. Slides were covered with […]® Mounting Media (VECTOR). The following primary and secondary antibodies were used for the staining: rabbit anti-Lysozyme (1:1000, Thermo Fisher Scientific), rat anti-E-cadherin (1:1000, Thermo Fisher Scientific), Alexa Fluor 488 and 568 secondary antibodies (1:1000, Invitrogen). Images were acquired with a confocal laser scanning microscope (Nikon Eclipse 90i). For the analysis of Lysozyme+ cells per organoid area, the number of counted Lysozyme+ cells were normalized to measured organoid surface area. Image J was used for the data analysis.

[1] = system: ENR+CD differentiating organoids; assay: Longitudinal single-cell RNA-seq (Seq-Well) of organoid differentiation, ENR+CD with or without 160 nM KPT-330
From the text: For time points beyond 2 days, media was refreshed every other day. Following the Seq-Well protocol Applicants followed a standard library preparation, sequencing, and alignment process (see Methods). […] Single-cell RNA-sequencing. A single-cell suspension was obtained from organoids cultured under conditions for the differentiation time course as described above. Applicants utilized the Seq-Well platform for massively parallel scRNA-seq to capture transcriptomes of single cells on barcoded mRNA capture beads. […] In brief, 20,000 cells from one organoid condition were loaded onto one array containing 100,000 barcoded mRNA capture beads. The loaded arrays containing cells and beads were then sealed using a polycarbonate membrane with a pore size of […], which allows for exchange of buffers but retains biological molecules confined within each microwell. Subsequent exchange of buffers allows for cell lysis, transcript hybridization, and bead recovery before performing reverse transcription en masse. Following reverse transcription and exonuclease treatment to remove excess primers, PCR amplification was carried out using KAPA HiFi PCR Mastermix with 2,000 beads per 50 μL reaction volume. Libraries were then pooled and purified using Agencourt AMPure XP beads (Beckman Coulter, A63881) by a 0.6×SPRI followed by a 0.8×SPRI and quantified using Qubit […] (Thermo Fisher). Libraries were constructed using the Nextera Tagmentation method on a total of 800 pg of pooled cDNA library per sample. […] Arrays were sequenced with an Illumina NovaSeq System. The read structure was paired end with Read 1 starting from a custom read 1 primer containing 20 bases with a 12 bp cell barcode and 8 bp unique molecular identifier (UMI) and Read 2 being 50 bases containing transcript information. Single-cell RNA-sequencing computational pipelines and analysis. […] Briefly, for each sequencing run, raw sequencing data was converted to demultiplexed FASTQ files using bcl2fastq2 based on Nextera N700 indices corresponding to individual samples/arrays. […] Individual reads were tagged according to the 12-bp barcode sequencing and the 8-bp UMI contained in Read 1 of each fragment. Following alignment, reads were binned onto 12-bp cell barcodes and collapsed by their 8-bp UMI. Digital gene expression matrices (e.g. cell by gene tables) for each sample were obtained from quality filtered and mapped reads and UMI-collapsed data, are deposited in GSE100274, and were utilized as input into Seurat v3 for further analysis. […] Applicants collected 17 samples at the following timepoints: 6 hours (0.25 days), and 1, 2, 3, 4, or 6 days. […] For time points beyond 2 days, media was refreshed every other day. […] Murine and human single-cell RNA-sequencing and alignment. […] Excess Matrigel was removed per previously described washing protocol, and organoids were resuspended in TrypLE at 37 C for 15 min, with vigorous homogenization through a p200 pipette tip every 5 min. After 15 min, the suspension was passed through a 30 uM cell strainer twice, and counted under brightfield microscopy with trypan blue staining for viable single cells. For human organoid scRNA-seq, antibody-based cell hashing was performed, with all samples pooled following labeling and three washes in FACS buffer to remove excess antibody. Each sample was manually counted to equally weight in cell pools, and then the pool was split and processed as four identical samples.

SMILES: O=C(/C=C\n1cnc(-c2cc(C(F)(F)F)cc(C(F)(F)F)c2)n1)NNc1cnccn1 [KPT-330]
- LYZ secretion, dose dependency (ISC-enriched organoids; KPT-330 below 160 nM for 6 days, basal and Cch-stimulated): enhanced Paneth cell activity in a dose-dependent manner; also recorded: LYZ secretion increasing in a dose-dependent manner
- enrichment in mature Paneth cells at day 6 (LYZ secretion assay) (ISC-enriched organoids; KPT-330 treatment day 4-6): minorly enriched; also recorded: slightly enriched
- most effective dose among tested concentrations (ISC-enriched organoids; LYZ secretion, ENR+CD 6 days): 160 nM
- LYZ+ Paneth cell number (IF imaging) (Paneth cells; ENR with or without 160 nM KPT-330, 3 days): pro-Paneth differentiation effect is also observed
- LYZ+ Paneth cell number (IF imaging) (Paneth cells; ENR+CD with 160 nM KPT-330, 6 days): an increase in Paneth cell number
- organoid cell type composition over differentiation time course ([1]; 160 nM KPT-330 vs control, day 0.25-6): enhances stem conversion to mature cells; also recorded: relative depletion of stem I (and stem II & III) and enteroendocrine cells over time along with the corresponding enrichment of enterocytes and Paneth cells
- inferred signaling pathway activity (PROGENy), effect of KPT-330 ([1]; Cohen's d per pathway and cell type): pan-epithelial increase in stress-associated Trail signaling
- inferred upstream TF activity clusters (DoRothEA), effect of KPT-330 ([1]; Fisher's exact test per cell type): depletion of cell cycle cluster 0 and enrichment in stress response cluster 6
- active and quiescent ISC signature ([1]; early stem cell populations, KPT-330 vs control): induces a quiescent ISC signature and reduces an active ISC signature; also recorded: transition into quiescence
- differentially expressed genes, KPT-330 treated vs untreated ([1]; stem II/III populations, day 0.25-2): most significantly enriched (Xpo1) and depleted (Kpnb1
- gene set enrichment analysis (MSigDB hallmark v7) ([1]; stem II/III populations, day 0.25-2, FDR<0.05): suppresses programs downstream of mitogen-driven signaling
